Patent US12453737B2, “Method for hydrating lyophilized cyclophosphamide composition and product thereof” (priority 2018, dated 2025)
Where two headings read alike, the source gives them in different places.

What was measured:
[1] = type: physicochemical; conditions: reconstituted with 0.9% sodium chloride injection to 20 mg/ml
Description: Then content and impurity profiles in Room Temperature (RT) and Refrigerator (2-8° C.) are determined respectively.

[2] = type: physicochemical; conditions: no hydration solution
Description: The hydrated CPP freeze-dried composition was stirred by weighting scoop gently until flowable powder comes into being. Then 1-2 g test sample was added on injection plate. Test method and parameters were as follows:
It will be understood by a person of ordinary skill in the art that a common approach to defining the distribution width is to cite three values on the x-axis, the D10, D50, and D90. As used herein, the term (“D50” refers to the median particle diameter, wherein half of the particle population has a diameter below such value. As used herein, the teed “D90,” refers to the particle diameter wherein 90% of the particle population has a diameter below such value. As used herein, the term “D10,” refers to the particle diameter wherein 10% of the particle population has a diameter below such value. PSD results were listed in Table 19.

[3] = Skeletal density (gas pycnometer); type: physicochemical; conditions: no strength, no hydration solution
Description: Skeletal Density, also known as true density, is determined at room temperature by Gas Pycnometer (Micromeritics Accupyc II 1340).

[4] = type: physicochemical; conditions: hydration solution NA, 0.9% sodium chloride, 250 rpm, room temperature
Description: Then the glass vial was placed on cyclotron (HY-5, Shanghai Suhao intelligent system Co. Ltd) making the glass vial oscillate at 250 rpm at room temperature to dissolve the active ingredient completely. The redissolving time was recorded in Table 18.

[5] = type: physicochemical; conditions: no strength, no hydration solution
Description: TD of the test sample is measured as per the Method I described in USP <616> which is obtained by mechanically tapping a graduated measuring cylinder (TAP Density Tester, Sotax TD2) containing the test sample.

[6] = type: physicochemical; conditions: strength NA, hydration solution NA
Description: BD is calculated by the following formula: BD (g/mL)=W/V0 • wherein • W is the theoretical weight, g; • V0 is the macroscopic volume, mL. • V0 is calculated by the following formula: V0 (mL)=πD^2h/4 • wherein • D is the theoretical inside diameter, cm; • h is the height, cm.

[7] = type: physicochemical; conditions: hydration pressure 50 kPa
[8] = Stability in 40° C./75% RH stability test chamber, CPP content; type: physicochemical; conditions: raw material, comparison
Description: The CPP freeze-dried composition hydrated for 16 h was placed in 40° C./75% RH stability test chamber, was sampled after 1 month and 3 months, and determined for CPP contents, which were compared with CPP monohydrate obtained by prior art hydrating process.
The CPP freeze-dried composition hydrated for 16 h was placed in 40° C./75% RH stability test chamber, sampled after 1 month and 3 months for determining CPP contents.

[9] = Stability in 45° C. oven, CPP content; type: physicochemical; conditions: raw material, comparison
Description: The moisture content, CPP content and redissolving time were determined for CPP freeze-dried composition hydrated with saturated sodium chloride solution in the freeze-drying box, respectively. In addition, the CPP freeze-dried compositions hydrated for 16 h and 24 h were placed in 45° C. oven and sampled for determining CPP contents after 1 week and 2 weeks, respectively.
Moisture content, CPP content and redissolving time were determined for CPP freeze-dried composition hydrated with saturated sodium chloride solution in the dryer, respectively. In addition, the CPP freeze-dried composition hydrated for 16 h was placed in 45° C. oven, sampled after 1 week and 2 weeks, respectively and determined for CPP contents. The CPP freeze-dried composition hydrated for 16 h was placed in 40° C./75% RH stability test chamber, was sampled after 1 month and 3 months, and determined for CPP contents, which were compared with CPP monohydrate obtained by prior art hydrating process.
The moisture content, CPP content and redissolving time were determined for CPP freeze-dried composition hydrated with saturated potassium sulfate solution in the dryer, respectively. In addition, the CPP freeze-dried composition hydrated for 16 h was placed in 45° C. oven and was sampled for determining CPP contents after 1 week and 2 weeks, respectively. […]

O=P1(N(CCCl)CCCl)NCCCO1 (stereo not drawn) [P—[N,N-bis(β-chloroethyl)]-1-oxa-3-aza-2-phosphocyclohexane-P-oxide]
Impurity A ([1]; 0 h (initial)): 0.03
Impurity B ([1]; 0 h (initial)): 0.03
Impurity D ([1]; 0 h (initial)): 0.00
Individual unknown impurity ([1]; 0 h (initial)): 0.08
Total impurities ([1]; 0 h (initial)): 0.15
Content ([1]; 3 Days (2-8° C.)): 96.7%
Impurity A ([1]; 3 Days (2-8° C.)): 0.00
Impurity B ([1]; 3 Days (2-8° C.)): 0.45
Impurity D ([1]; 3 Days (2-8° C.)): 0.00
Individual unknown impurity ([1]; 3 Days (2-8° C.)): 0.09
Total impurities ([1]; 3 Days (2-8° C.)): 0.57
Content ([1]; 6 Days (2-8° C.)): 95.2%
Impurity A ([1]; 6 Days (2-8° C.)): 0.00
Impurity B ([1]; 6 Days (2-8° C.)): 0.64
Impurity D ([1]; 6 Days (2-8° C.)): 0.00
Individual unknown impurity ([1]; 6 Days (2-8° C.)): 0.12
Total impurities ([1]; 6 Days (2-8° C.)): 0.77
Content ([1]; 6 h (RT)): 95.3%
Impurity A ([1]; 6 h (RT)): 0.00
Impurity B ([1]; 6 h (RT)): 0.71
Impurity D ([1]; 6 h (RT)): 0.00
Individual unknown impurity ([1]; 6 h (RT)): 0.06
Total impurities ([1]; 6 h (RT)): 0.81
Content ([1]; 12 h (RT)): 96.7%
Impurity A ([1]; 12 h (RT)): 0.00
Impurity B ([1]; 12 h (RT)): 1.01
Impurity D ([1]; 12 h (RT)): 0.05
Individual unknown impurity ([1]; 12 h (RT)): 0.14
Total impurities ([1]; 12 h (RT)): 1.33
Content ([1]; 24 h (RT)): 97.0%
Impurity A ([1]; 24 h (RT)): 0.03
Impurity B ([1]; 24 h (RT)): 1.82
Impurity D ([1]; 24 h (RT)): 0.30
Individual unknown impurity ([1]; 24 h (RT)): 0.47
Total impurities ([1]; 24 h (RT)): 2.64
D10 (μm) [2]: 5.6 μm
D50 (μm) [2]: 34.8 μm
D90 (μm) [2]: 262.0 μm
Skeletal Density [3]: 1.4286 g/mL
Redissolving Time ([4]; strength 0.5 g): 8.7 min
Redissolving Time ([4]; strength 1 g): 11.2 min
Redissolving Time ([4]; strength 2 g): 16.4 min
Tapped Density [5]: 0.9369 g/mL
Bulk Density [6]: 0.6246 g/mL
Content (%) ([7]; 45° C. -1 Week): 82.6%
Impurity A (%) ([7]; 45° C. -1 Week): 0.65%
Impurity B (%) ([7]; 45° C. -1 Week): 0.61%
Impurity D (%) ([7]; 45° C. -1 Week): 0.71%
Max. individual unknown impurity (%) ([7]; 45° C. -1 Week): 2.01%
Total impurities (%) ([7]; 45° C. -1 Week): 5.66%
Content (%) ([7]; 45° C. -2 Weeks): 45.8%
Impurity A (%) ([7]; 45° C. -2 Weeks): 1.82%
Impurity B (%) ([7]; 45° C. -2 Weeks): 1.40%
Impurity D (%) ([7]; 45° C. -2 Weeks): 0.98%
Max. individual unknown impurity (%) ([7]; 45° C. -2 Weeks): 1.56%
Total impurities (%) ([7]; 45° C. -2 Weeks): 15.59%

O=P1(N(CCCl)CCCl)NCCCO1 (stereo not shown) [CPP monohydrate raw material, Cyclophosphamide monohydrate]
Stability-CPP content % 40° C./75% RH-3 months [8]: 86.1%
Stability-CPP content % 45° C.-2 weeks [9]: 101.8%
